For test [1], the target named is T1, Caspase-9 (Homo sapiens, UniProt P55211).
T1 sequence (P55211 whole entry): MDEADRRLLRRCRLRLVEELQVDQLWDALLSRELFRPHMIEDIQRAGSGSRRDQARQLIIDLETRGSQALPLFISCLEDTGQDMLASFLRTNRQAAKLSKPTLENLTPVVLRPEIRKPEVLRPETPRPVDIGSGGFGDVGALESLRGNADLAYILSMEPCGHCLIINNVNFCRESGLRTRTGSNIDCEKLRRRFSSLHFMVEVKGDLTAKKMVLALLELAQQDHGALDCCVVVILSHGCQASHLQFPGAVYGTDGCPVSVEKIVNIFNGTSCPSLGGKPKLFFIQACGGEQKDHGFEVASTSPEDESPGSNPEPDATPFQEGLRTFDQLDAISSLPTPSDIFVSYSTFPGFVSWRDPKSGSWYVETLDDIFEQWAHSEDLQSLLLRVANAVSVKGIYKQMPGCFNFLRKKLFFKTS
Description: Inhibition of caspase-9 (unknown origin).

The target in test [2] is T2, Caspase-7 (Homo sapiens, UniProt P55210).
T2 sequence (P55210 whole entry): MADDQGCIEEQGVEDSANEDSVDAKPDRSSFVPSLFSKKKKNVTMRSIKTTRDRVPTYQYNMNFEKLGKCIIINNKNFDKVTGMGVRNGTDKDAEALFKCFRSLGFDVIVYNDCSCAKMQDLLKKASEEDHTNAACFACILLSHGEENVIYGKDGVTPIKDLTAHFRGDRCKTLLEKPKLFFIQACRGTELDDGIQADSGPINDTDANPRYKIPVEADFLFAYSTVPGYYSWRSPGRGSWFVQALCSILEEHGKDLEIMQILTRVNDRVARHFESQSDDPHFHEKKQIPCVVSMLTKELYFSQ
Description: Inhibition of caspase-7 (unknown origin).

Test [3] addresses T3, Caspase-1 (Homo sapiens, UniProt P29466).
T3 sequence (P29466 whole entry): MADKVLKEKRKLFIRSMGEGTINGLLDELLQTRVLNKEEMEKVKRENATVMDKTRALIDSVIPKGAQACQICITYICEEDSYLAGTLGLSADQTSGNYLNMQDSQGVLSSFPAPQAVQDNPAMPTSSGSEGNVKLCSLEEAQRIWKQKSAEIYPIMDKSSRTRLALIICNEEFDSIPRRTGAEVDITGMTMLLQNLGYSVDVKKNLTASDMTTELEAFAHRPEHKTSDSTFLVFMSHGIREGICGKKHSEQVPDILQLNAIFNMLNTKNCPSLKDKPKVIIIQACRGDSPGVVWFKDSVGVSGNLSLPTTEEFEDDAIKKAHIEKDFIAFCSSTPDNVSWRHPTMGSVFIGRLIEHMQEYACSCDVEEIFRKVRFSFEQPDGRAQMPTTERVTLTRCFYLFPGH
Kind of test: Inhibition of caspase-1 (unknown origin).

The target of test [4] is T4, Caspase-5 (Homo sapiens, UniProt P51878).
T4 sequence (P51878 whole entry): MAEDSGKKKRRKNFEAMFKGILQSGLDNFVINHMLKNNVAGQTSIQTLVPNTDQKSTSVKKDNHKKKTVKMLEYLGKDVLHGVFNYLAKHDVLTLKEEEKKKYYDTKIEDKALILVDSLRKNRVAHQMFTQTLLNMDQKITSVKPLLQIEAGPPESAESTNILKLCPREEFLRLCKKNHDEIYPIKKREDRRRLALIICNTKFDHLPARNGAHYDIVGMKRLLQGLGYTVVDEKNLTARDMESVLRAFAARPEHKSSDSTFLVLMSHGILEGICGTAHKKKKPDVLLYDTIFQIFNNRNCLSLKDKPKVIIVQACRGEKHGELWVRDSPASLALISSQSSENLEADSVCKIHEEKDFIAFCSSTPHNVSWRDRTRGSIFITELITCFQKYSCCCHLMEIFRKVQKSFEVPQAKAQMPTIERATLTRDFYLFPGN
Kind of test: Inhibition of caspase-5 (unknown origin).

In test [5] the target is T5, Caspase-10 (Homo sapiens, UniProt Q92851).
T5 sequence (Q92851 whole entry): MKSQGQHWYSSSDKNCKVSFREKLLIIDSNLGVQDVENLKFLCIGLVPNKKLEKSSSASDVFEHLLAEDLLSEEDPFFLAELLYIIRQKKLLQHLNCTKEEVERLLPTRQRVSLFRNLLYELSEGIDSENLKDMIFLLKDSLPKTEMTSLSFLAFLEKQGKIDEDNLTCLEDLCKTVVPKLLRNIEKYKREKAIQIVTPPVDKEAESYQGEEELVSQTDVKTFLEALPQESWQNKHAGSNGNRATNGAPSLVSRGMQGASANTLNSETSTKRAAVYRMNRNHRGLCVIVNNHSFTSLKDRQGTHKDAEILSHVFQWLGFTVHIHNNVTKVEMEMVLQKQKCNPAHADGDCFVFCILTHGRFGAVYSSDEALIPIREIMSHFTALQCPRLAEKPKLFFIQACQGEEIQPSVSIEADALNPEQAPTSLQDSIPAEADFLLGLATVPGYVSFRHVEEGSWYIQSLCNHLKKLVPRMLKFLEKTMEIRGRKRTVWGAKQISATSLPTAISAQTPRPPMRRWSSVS
Description: Inhibition of caspase-10 (unknown origin).

Test [6] deals with Caspase-8 (Homo sapiens, UniProt Q14790). Description: Inhibition of caspase-8 (unknown origin).
Caspase-8, sequence (Q14790 217-374 limits assumed): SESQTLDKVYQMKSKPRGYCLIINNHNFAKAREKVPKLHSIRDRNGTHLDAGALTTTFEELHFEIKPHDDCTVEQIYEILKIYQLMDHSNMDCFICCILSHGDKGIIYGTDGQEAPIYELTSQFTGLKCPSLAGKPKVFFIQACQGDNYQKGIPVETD
Caspase-8, sequence (Q14790 385-479 limits assumed): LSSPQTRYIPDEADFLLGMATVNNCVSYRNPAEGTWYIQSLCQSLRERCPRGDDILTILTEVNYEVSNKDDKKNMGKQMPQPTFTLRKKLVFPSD
Test [7] concerns the target T6, Caspase-6 (Homo sapiens, UniProt P55212).
T6 sequence (P55212 whole entry): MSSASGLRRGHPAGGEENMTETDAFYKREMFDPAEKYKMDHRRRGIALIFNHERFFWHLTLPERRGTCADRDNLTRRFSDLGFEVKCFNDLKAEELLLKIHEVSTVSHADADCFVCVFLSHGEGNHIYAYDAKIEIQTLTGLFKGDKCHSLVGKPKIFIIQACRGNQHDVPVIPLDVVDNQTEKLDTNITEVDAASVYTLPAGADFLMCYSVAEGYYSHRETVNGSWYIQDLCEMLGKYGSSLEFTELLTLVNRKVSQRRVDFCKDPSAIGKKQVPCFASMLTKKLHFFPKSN
Description: Inhibition of caspase-6 (unknown origin).

The target of test [8] is T7, Caspase-2 (Homo sapiens, UniProt P42575).
T7 sequence (P42575 whole entry): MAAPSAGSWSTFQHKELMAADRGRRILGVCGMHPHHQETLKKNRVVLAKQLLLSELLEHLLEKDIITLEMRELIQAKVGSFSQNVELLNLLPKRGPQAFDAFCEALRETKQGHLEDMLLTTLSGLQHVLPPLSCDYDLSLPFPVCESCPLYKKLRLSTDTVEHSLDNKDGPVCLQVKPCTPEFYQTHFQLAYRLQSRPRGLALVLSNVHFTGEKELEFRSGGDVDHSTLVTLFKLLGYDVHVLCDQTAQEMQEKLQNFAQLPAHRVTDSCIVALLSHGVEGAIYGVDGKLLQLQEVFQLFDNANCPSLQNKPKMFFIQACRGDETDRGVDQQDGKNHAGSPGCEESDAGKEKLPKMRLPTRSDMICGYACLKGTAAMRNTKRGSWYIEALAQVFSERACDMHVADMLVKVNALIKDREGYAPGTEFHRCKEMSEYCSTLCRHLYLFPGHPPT
Kind of test: Inhibition of caspase-2 (unknown origin).

In test [9] the target is T8, Caspase-4 (Homo sapiens, UniProt P49662).
T8 sequence (P49662 whole entry): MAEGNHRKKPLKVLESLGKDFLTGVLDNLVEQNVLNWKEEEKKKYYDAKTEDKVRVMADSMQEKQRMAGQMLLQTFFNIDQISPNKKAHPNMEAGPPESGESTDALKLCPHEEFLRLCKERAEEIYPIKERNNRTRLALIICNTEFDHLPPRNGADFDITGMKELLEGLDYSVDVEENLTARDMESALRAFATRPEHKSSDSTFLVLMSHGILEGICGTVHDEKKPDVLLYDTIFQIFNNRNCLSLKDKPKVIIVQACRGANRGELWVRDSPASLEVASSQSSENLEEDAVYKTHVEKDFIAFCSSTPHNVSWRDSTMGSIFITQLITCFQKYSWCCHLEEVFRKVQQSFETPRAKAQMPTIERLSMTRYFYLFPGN
Description: Inhibition of caspase-4 (unknown origin).

Test [10] deals with T9, Caspase-3 (Homo sapiens, UniProt P42574).
T9 sequence (P42574 whole entry): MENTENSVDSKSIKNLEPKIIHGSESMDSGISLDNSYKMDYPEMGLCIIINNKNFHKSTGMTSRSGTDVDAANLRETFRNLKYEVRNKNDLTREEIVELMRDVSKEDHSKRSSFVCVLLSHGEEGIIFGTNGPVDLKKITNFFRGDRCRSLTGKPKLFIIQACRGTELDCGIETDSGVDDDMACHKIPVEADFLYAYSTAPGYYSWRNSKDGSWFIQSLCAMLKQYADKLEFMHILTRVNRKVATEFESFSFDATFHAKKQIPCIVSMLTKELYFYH
Description: Inhibition of caspase-3 (unknown origin).

SMILES strings stand for the structures.

On to `CC(C)(C)[C@@H](NC(=O)c1ccc(N)c(Cl)c1)C(=O)N1CCC[C@H]1C(=O)N[C@H](/C=C/S(C)(=O)=O)CC(=O)O`, for which the IC50 (in general, the concentration needed to halve the response being measured) is 2.3 µM in test [1]; 24.5 µM in [2]; 0.02 µM in test [3]; 0.56 µM in test [4]; 2.67 µM in test [5]; 12.9 µM in [6]. Moreover, the IC50 in test [7] was over 100 µM; in test [8], over 100 µM; in test [9], 0.09 µM; in test [10] it was over 100 µM.

Take `CC(C)(C)[C@H](NC(=O)[C@H](CC(=O)O)NC(=O)OCc1ccccc1)C(=O)N1CC[C@H]1C(=O)N[C@H](/C=C/S(C)(=O)=O)CC(=O)O`: the IC50 in [1] is 1.1 µM; in test [2], 0.5 µM; in test [3], 13.2 µM; in test [4], 35.2 µM; in test [5], 0.42 µM; in test [6], 4.1 µM. Moreover, the IC50 in test [7] was over 100 µM; in test [8], 13.1 µM; in test [9] it was 5.6 µM; in [10] it was 0.28 µM.

Consider `CC[C@H](C)[C@H](NC(=O)[C@H](CCC(N)=O)NC(=O)[C@@H](NC(=O)OCc1ccccc1)C(C)C)C(=O)N[C@H](/C=C/S(C)(=O)=O)CC(=O)O`, for which the IC50 was 0.8 µM in [1]; over 100 µM in test [2]; 2.7 µM in [3]; 19.5 µM in test [4]; 0.13 µM in [5]; 0.6 µM in [6]. Besides, the IC50 was 0.6 µM in [7], over 100 µM in test [8], 0.37 µM in test [9] and 6.9 µM in [10].

For the compound `CC[C@H](C)[C@H](NC(=O)[C@H](CCC(N)=O)NC(=O)[C@H](Cc1c[nH]c2ccccc12)NC(=O)OCc1ccccc1)C(=O)N[C@H](/C=C/S(C)(=O)=O)CC(=O)O`, the half-inhibitory concentration (IC50) was found to be 1.74 µM in test [1]; 23.7 µM in [2]; 0.026 µM in test [3]; 0.75 µM in [4]; 3.3 µM in test [5]; 5.93 µM in [6]. Moreover, the IC50 is 100 µM in test [7], over 100 µM in test [8], 0.18 µM in [9] and 6.5 µM in test [10].

In the case of `CCOC(=O)/C=C/[C@H](CC(=O)O)NC(=O)[C@@H](NC(=O)[C@@H](NC(=O)[C@H](CC(=O)O)NC(=O)OCc1ccccc1)c1ccccc1)C(C)C`, the IC50 in [4], in test [7] and in test [8] was over 100 µM throughout.

The values above are taken from ChEMBL document CHEMBL2321675, “Irreversible inhibitors of cysteine proteases” (ACS Med Chem Lett, 2013).
